Experimental data taken from PubChem BioAssay (NCI).
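Cultured in 96-well plates, cells were exposed to test compound for 48 hours across five concentrations. GI50 marks 50% less growth. TGI is the concentration that stops growth completely.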

Assays:
Test in all cases: growth of human tumour cells (NCI), 48 h
[1] = system: COLO 205 colon
[2] = system: K-562 leukemia
[3] = system: RXF 393 renal
[4] = system: HCT-15 colon
[5] = system: HS 578T breast
[6] = system: NCI/ADR-RES ovarian
[7] = system: HCT-116 colon
[8] = system: SR leukemia
[9] = system: SF-539 CNS
[10] = system: CCRF-CEM leukemia

Row | SMILES | TGI [1] | TGI [2] | TGI [3] | TGI [4] | TGI [5] | TGI [6] | TGI [7] | TGI [8] | TGI [9] | TGI [10] | GI50 [1] | GI50 [2] | GI50 [3] | GI50 [8] | GI50 [4] | GI50 [5] | GI50 [9] | GI50 [6] | GI50 [7]
1 | CC(C)(C)OC(=O)NCC(=O)N1CCCN(C(=O)CNC(=O)OC(C)(C)C)CC1 | > 100 µM | > 100 µM | > 100 µM | > 100 µM | > 100 µM | > 100 µM | > 100 µM |  |  |  |  |  |  |  |  |  |  |  | 
2 | CCC(C)C1(O)OC2CC3(C)OC(=CC3=O)/C(C)=C\C3OC(=O)C1(C)C32 (stereo not drawn) | 21 µM | > 100 µM |  | 17.3 µM | > 100 µM | > 100 µM | 47.2 µM | 73.5 µM | > 100 µM | > 100 µM |  |  |  |  |  |  |  |  | 
3 | O=C(O)c1ccc(Nc2nc3ccccc3nc2C(=O)O)cc1 | > 100 µM | > 100 µM |  |  | > 100 µM | > 100 µM | > 100 µM | > 100 µM | > 100 µM | > 100 µM |  |  |  |  |  |  |  |  | 
4 | N#Cc1c(N2CCN(c3ccc([N+](=O)[O-])cc3)CC2)[n+](=O)c2ccc(Cl)cc2n1[O-] |  | > 100 µM | > 22.7 µM | 2.17 µM | > 100 µM | 7.85 µM |  |  | 4.37 µM | 4.2 µM |  |  |  |  |  |  |  |  | 
5 | COC1/C=C/C(C)C(C(C)C(OC)C(C)CCC(=O)C(C)C(C/C=C/N(C)C=O)OC)OC(=O)/C=C/C=C(\C)CC(OC)C(OC)C2=CC(=O)O[C@@H](C(C)C(OC)CC(OC)/C=C/C(C)C(O)C1)[C@H]2O (stereo partly drawn) |  | > 100 µM | 0.263 µM | 0.329 µM | 0.16 µM | 0.766 µM | 0.207 µM | > 31.6 µM | 0.381 µM |  |  |  |  |  |  |  |  |  | 
6 | Nc1nc2cc(CNc3ccc(C(=O)NC(CCC(=O)O)C(=O)O)cc3)ccc2nc1-c1ccccc1 (stereo not drawn) | > 10 µM | > 10 µM | > 10 µM | > 10 µM | > 10 µM | > 10 µM | > 10 µM |  | > 10 µM | > 10 µM |  |  |  |  |  |  |  |  | 
7 | NC(=O)CS(=O)CC(N)C(=O)O (stereo not drawn) |  | > 100 µM | > 100 µM | > 100 µM | > 100 µM | > 100 µM | > 100 µM | > 100 µM |  |  |  |  |  |  |  |  |  |  | 
8 | CCCCCCOc1ccc(NC2=C(Cl)C(=O)c3ncccc3C2=O)cc1 |  | > 10 µM | 3.7 µM | 4.64 µM | 9 µM |  | 2.38 µM |  | 3.3 µM | 5.96 µM |  |  |  |  |  |  |  |  | 
9 | COc1cc(C2S/C(=C/c3ccccc3)C(=O)N2c2cccc([N+](=O)[O-])c2)cc(OC)c1OC (stereo not drawn) | > 100 µM | > 100 µM |  | > 100 µM | > 100 µM | > 100 µM | > 100 µM | > 100 µM |  |  |  |  |  |  |  |  |  |  | 
10 | Clc1ncnc2c1ncn2CCCCCCCCCCCCn1cnc2c(Cl)ncnc21 | 29.1 µM | 17.4 µM | 32.2 µM | 25.8 µM |  |  | 24.8 µM | 3.82 µM | 27.8 µM | > 100 µM |  |  |  |  |  |  |  |  | 
11 | Cc1n(CC(=O)c2ccccc2)nc2sc(N)n[n+]12 | > 100 µM | > 100 µM | > 100 µM | > 100 µM | > 100 µM | > 100 µM | > 100 µM |  | > 100 µM | > 100 µM |  |  |  |  |  |  |  |  | 
12 | Cn1ccc(C(=O)NCCCCCNC(=O)c2ccn(C)c(=O)c2O)c(O)c1=O | > 100 µM |  |  | > 100 µM | > 100 µM | > 100 µM | > 100 µM | > 100 µM |  | > 100 µM |  |  |  |  |  |  |  |  | 
13 | OCC(O)C(O)C(O)C(/C=N\Nc1ncnc2ccc(Br)cc12)=N/Nc1ncnc2ccc(Br)cc12 (stereo not drawn) | > 100 µM | > 100 µM | > 100 µM |  | > 100 µM |  | > 100 µM | > 100 µM | > 100 µM |  |  |  |  |  |  |  |  |  | 
14 | O=C(c1ccccc1)N1C(=S)N(c2ccc([N+](=O)[O-])cc2)C(=Nc2ccccc2)C1=Nc1ccccc1 | > 100 µM | > 100 µM | > 100 µM | > 100 µM | > 100 µM | > 100 µM |  | > 100 µM | > 100 µM |  |  |  |  |  |  |  |  |  | 
15 | Cc1ccc2nc(Cl)c(/C=N/N3C(=O)/C(=C/c4ccc(N(C)C)cc4)N=C3c3ccccc3)cc2c1 | > 100 µM | > 100 µM |  | > 100 µM | > 100 µM | > 100 µM | > 100 µM | > 100 µM | 52.4 µM | > 100 µM |  |  |  |  |  |  |  |  | 
16 | O=C(Nc1cccc(-n2ccc3c(NC(=O)c4ccccc4)nccc32)c1)c1cc(N2CCOCC2)cc(C(F)(F)F)c1 | 0.472 µM | > 100 µM | 0.159 µM |  | 32.6 µM | > 100 µM | > 29.8 µM |  | 0.94 µM |  | 0.157 µM | 0.0506 µM | 0.0325 µM | 0.0583 µM | 0.0395 µM | 0.0621 µM | 0.0675 µM | 0.09 µM | 0.0347 µM
17 | COc1cc(CNc2nc3cc(C(F)(F)F)ccc3nc2C)cc(OC)c1OC | 30.2 µM | 73.9 µM | 44.7 µM | 32.8 µM | 39.7 µM |  | 72.2 µM | 76.1 µM | 62.2 µM | 62.6 µM |  |  |  |  |  |  |  |  | 
18 | COc1cc(-c2nc3nc(N4CCN(C)CC4)ccc3[nH]2)c(OC)c2[nH]c(COC(C)=O)nc12 | > 100 µM | > 100 µM | 86.7 µM | > 100 µM | > 100 µM | > 100 µM | 58.6 µM | > 100 µM | 35.4 µM |  |  |  |  |  |  |  |  |  | 
19 | COc1nc2[nH]ccc2c(=O)n1C | > 100 µM | > 100 µM | > 100 µM | > 100 µM |  |  | > 100 µM | > 100 µM | > 100 µM | > 100 µM |  |  |  |  |  |  |  |  | 
20 | C[C@H](CCC1=NCCN1)[C@H]1CC[C@H]2[C@@H]3CC[C@@H]4C[C@H](O)CC[C@]4(C)[C@H]3C[C@H](O)[C@]12C | 23.8 µM | 21 µM | 35.9 µM | > 100 µM | 27.8 µM | > 100 µM | > 100 µM |  | 29.5 µM | 30.4 µM |  |  |  |  |  |  |  |  | 
21 | COc1cc(/C=C/C(=O)OC[C@H](Br)[C@H](OC(C)=O)c2ccc3c(c2)OCO3)cc(OC)c1OC | > 100 µM | > 100 µM | > 100 µM | > 100 µM |  | > 100 µM | > 100 µM | > 100 µM | > 100 µM | > 100 µM |  |  |  |  |  |  |  |  | 
22 | CC(=O)NC1=C(NCc2ccc(Cl)cc2)C(=O)c2ccccc2C1=O | 11.4 µM | 16.7 µM | 10.5 µM | 11.6 µM |  |  | 9.35 µM | 29.9 µM | 10.5 µM | 32.3 µM |  |  |  |  |  |  |  |  | 
23 | O=C(C#Cc1cn(C2CC(O)C(CO)O2)c(=O)[nH]c1=O)c1ccccc1 (stereo not drawn) | 65.7 µM |  | 52.7 µM | > 100 µM | > 100 µM | > 100 µM | > 100 µM | > 100 µM | 52.5 µM |  |  |  |  |  |  |  |  |  | 
